The values below come from ChEMBL document CHEMBL4321809, “Structure-Reactivity Relationships on Substrates and Inhibitors of the Lysine Deacylase Sirtuin 2 from Schistosoma mansoni (SmSirt2)” (J Med Chem, 2019).

The source made the active and inactive calls. No cut-off for these calls is given here.

For data set [1], the target named is T1, NAD-dependent protein deacetylase (Schistosoma mansoni, UniProt T1VXA1).
T1 sequence (T1VXA1 whole entry): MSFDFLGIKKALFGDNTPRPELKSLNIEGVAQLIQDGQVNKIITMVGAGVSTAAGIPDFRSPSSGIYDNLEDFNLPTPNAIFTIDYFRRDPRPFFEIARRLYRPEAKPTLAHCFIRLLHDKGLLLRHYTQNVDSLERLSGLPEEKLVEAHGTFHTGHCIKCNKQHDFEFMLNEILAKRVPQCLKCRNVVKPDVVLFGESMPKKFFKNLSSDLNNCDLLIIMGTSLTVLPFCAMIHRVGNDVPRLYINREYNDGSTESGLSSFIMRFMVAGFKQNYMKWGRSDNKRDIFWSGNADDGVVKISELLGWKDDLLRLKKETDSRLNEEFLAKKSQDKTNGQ
Put plainly: Inhibition of recombinant Schistosoma mansoni sirtuin 2 (21 to 322 residues) expressed in Escherichia coli BL21(DE3) cells assessed as inhibition of substrate deacetylation using ZMAL as substrate.

The target in data set [2] is T1, NAD-dependent protein deacetylase. Put plainly: Inhibition of recombinant Schistosoma mansoni sirtuin 2 (21 to 322 residues) expressed in Escherichia coli BL21(DE3) cells assessed as inhibition of substrate demyristoylation using (Z)-(Myr)-Lys-AMC as substrate.
Data set [3] deals with T2, NAD-dependent protein deacetylase sirtuin-2 (Homo sapiens, UniProt Q8IXJ6).
T2 sequence (Q8IXJ6 whole entry): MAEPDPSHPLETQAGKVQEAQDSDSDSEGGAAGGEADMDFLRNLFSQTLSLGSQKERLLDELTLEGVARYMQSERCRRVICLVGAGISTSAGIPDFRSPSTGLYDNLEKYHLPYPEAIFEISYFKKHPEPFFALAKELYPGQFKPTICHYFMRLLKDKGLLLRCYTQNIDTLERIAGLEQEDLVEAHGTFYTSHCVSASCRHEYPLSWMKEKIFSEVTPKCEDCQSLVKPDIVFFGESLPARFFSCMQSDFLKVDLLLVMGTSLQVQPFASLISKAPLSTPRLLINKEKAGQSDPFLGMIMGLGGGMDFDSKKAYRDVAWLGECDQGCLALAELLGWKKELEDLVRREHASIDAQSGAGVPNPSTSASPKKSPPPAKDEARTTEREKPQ
The data set is described as follows: Inhibition of human sirutin 2 assessed as inhibition of susbtrate demyristoylation at 20 uM using (Z)-(Myr)-Lys-AMC as substrate relative to control.

Data set [4] addresses T3, NAD-dependent protein deacetylase sirtuin-1 (Homo sapiens, UniProt Q96EB6).
T3 sequence (Q96EB6 whole entry): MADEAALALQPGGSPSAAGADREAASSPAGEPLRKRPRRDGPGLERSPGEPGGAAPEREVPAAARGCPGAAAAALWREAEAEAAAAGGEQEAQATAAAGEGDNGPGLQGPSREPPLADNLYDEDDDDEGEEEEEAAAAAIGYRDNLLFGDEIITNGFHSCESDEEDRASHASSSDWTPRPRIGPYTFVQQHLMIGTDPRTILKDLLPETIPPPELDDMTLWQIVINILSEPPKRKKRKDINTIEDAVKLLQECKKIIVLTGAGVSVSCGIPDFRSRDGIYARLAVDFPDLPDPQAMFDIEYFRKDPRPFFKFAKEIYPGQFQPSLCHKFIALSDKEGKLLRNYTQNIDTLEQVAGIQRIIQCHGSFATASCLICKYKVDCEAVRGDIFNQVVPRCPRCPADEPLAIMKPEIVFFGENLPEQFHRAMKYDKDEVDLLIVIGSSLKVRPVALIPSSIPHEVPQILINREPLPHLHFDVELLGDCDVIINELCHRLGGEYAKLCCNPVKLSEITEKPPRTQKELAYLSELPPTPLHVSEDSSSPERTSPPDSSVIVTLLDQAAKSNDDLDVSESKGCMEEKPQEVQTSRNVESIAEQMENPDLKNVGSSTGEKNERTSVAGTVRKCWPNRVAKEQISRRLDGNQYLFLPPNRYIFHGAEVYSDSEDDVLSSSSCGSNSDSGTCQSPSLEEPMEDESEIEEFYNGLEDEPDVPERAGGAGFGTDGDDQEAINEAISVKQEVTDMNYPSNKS
Put plainly: Inhibition of human sirtuin 1 at 500 uM relative to control.

Data set [5] addresses T4, NAD-dependent protein deacetylase (Schistosoma mansoni) (UniProt T1VXA1).
T4 sequence (whole entry): T1 sequence (T1VXA1 whole entry)
Put plainly: Inhibition of recombinant Schistosoma mansoni sirtuin 2 (21 to 322 residues) expressed in Escherichia coli BL21(DE3) cells in presence of ZMAL.

Data set [6] addresses T4, NAD-dependent protein deacetylase (Schistosoma mansoni). Put plainly: Inhibition of recombinant Schistosoma mansoni sirtuin 2 (21 to 322 residues) expressed in Escherichia coli BL21(DE3) cells in presence of (Z)-(But)Lys-AMC.
The target is the same in data set [7]. The data set is described as follows: Inhibition of recombinant Schistosoma mansoni sirtuin 2 (21 to 322 residues) expressed in Escherichia coli BL21(DE3) cells in presence of (Z)-(Hex)Lys-AMC.
For data set [8] the target is unchanged. The data set is described as follows: Inhibition of recombinant Schistosoma mansoni sirtuin 2 (21 to 322 residues) expressed in Escherichia coli BL21(DE3) cells in presence of (Z)-(Oct)Lys-AMC.
The target is the same in data set [9]. The data set is described as follows: Inhibition of recombinant Schistosoma mansoni sirtuin 2 (21 to 322 residues) expressed in Escherichia coli BL21(DE3) cells in presence of (Z)-(Dec)Lys-AMC.
Data set [10] has the same target. Put plainly: Inhibition of recombinant Schistosoma mansoni sirtuin 2 (21 to 322 residues) expressed in Escherichia coli BL21(DE3) cells in presence of (Z)-(Lau)Lys-AMC.
The target is the same in data set [11]. Put plainly: Inhibition of recombinant Schistosoma mansoni sirtuin 2 (21 to 322 residues) expressed in Escherichia coli BL21(DE3) cells in presence of (Z)-(Myr)Lys-AMC.
Data set [12] has the same target. The data set is described as follows: Inhibition of recombinant Schistosoma mansoni sirtuin 2 (21 to 322 residues) expressed in Escherichia coli BL21(DE3) cells in presence of (Z)-(Pal)Lys-AMC.
Data set [13] deals with T1, NAD-dependent protein deacetylase. Put plainly: Substrate activity at recombinant Schistosoma mansoni sirtuin 2 (21 to 322 residues) expressed in Escherichia coli BL21(DE3) cells assessed as ratio of Kcat to Km up to 30 mins in presence of ZMAL at saturated concentration by homogeneous fluorescence based analysis. Format: ADME. The following applies: 0.5 h.
Data set [14] shares this target. Put plainly: Ratio of Kcat for recombinant Schistosoma mansoni sirtuin 2 (21 to 322 residues) expressed in Escherichia coli BL21(DE3) cells in presence of PSDKmyr to Kcat for recombinant Schistosoma mansoni sirtuin 2 (21 to 322 residues) expressed in Escherichia coli BL21(DE3) cells in presence of PSDKac. Format: ADME.
Substrate in data set [15]: CCCCCCCCCCCCCC(=O)NCCCC[C@H](NC(=O)[C@H](CC(=O)O)NC(=O)[C@H](CO)NC(=O)[C@@H]1CCCN1C(C)=O)C(=O)N[C@@H](Cc1ccc(O)cc1)C(=O)N[C@H](C(=O)NCC(=O)NCC(=O)N[C@@H](Cc1c[nH]c2ccccc12)C(=O)N[C@@H](Cc1c[nH]c2ccccc12)C(N)=O)[C@@H](C)CC
Put plainly: Substrate activity at recombinant Schistosoma mansoni sirtuin 2 (21 to 322 residues) expressed in Escherichia coli BL21(DE3) cells assessed as Km up to 30 mins by RP-HPLC analysis. Format: ADME.

Substrate in data set [16]: NC(=O)c1ccc[n+]([C@H]2O[C@@H](COP(=O)([O-])OP(=O)(O)OC[C@H]3O[C@@H](n4cnc5c(N)ncnc54)[C@H](O)[C@@H]3O)[C@H](O)[C@@H]2O)c1
Put plainly: Substrate activity at recombinant Schistosoma mansoni sirtuin 2 (21 to 322 residues) expressed in Escherichia coli BL21(DE3) cells assessed as Km up to 30 mins in presence of PSDKac at saturating concentration by RP-HPLC analysis. Format: ADME.

Substrate in data set [17]: CC(=O)N[C@@H](CCCCN)C(=O)Nc1ccc2c(C)cc(=O)oc2c1
The data set is described as follows: (§1) Substrate activity at recombinant Schistosoma mansoni sirtuin 2 (21 to 322 residues) expressed in Escherichia coli BL21(DE3) cells assessed as Km up to 30 mins by homogeneous fluorescence based analysis. Type of data set: ADME.

Substrate in data set [18]: CCCCCCCCCCCCCCCC(=O)NCCCC[C@H](NC(=O)OCc1ccccc1)C(=O)Nc1ccc2c(C)cc(=O)oc2c1
The data set is described as §1. Type of data set: ADME.

Substrate in data set [19]: NC(=O)c1ccc[n+]([C@H]2O[C@@H](COP(=O)([O-])OP(=O)(O)OC[C@H]3O[C@@H](n4cnc5c(N)ncnc54)[C@H](O)[C@@H]3O)[C@H](O)[C@@H]2O)c1
The data set is described as follows: Substrate activity at recombinant Schistosoma mansoni sirtuin 2 (21 to 322 residues) expressed in Escherichia coli BL21(DE3) cells assessed as Km up to 30 mins in presence of ZMAL at saturated substrate concentration by homogeneous fluorescence based analysis. Type of data set: ADME.

Substrate in data set [20]: NC(=O)c1ccc[n+]([C@H]2O[C@@H](COP(=O)([O-])OP(=O)(O)OC[C@H]3O[C@@H](n4cnc5c(N)ncnc54)[C@H](O)[C@@H]3O)[C@H](O)[C@@H]2O)c1
The data set is described as follows: Substrate activity at recombinant Schistosoma mansoni sirtuin 2 (21 to 322 residues) expressed in Escherichia coli BL21(DE3) cells assessed as Km up to 30 mins in presence of PSDKmyr at saturating concentration by RP-HPLC analysis. Format: ADME.

Substrate in data set [21]: NC(=O)c1ccc[n+]([C@H]2O[C@@H](COP(=O)([O-])OP(=O)(O)OC[C@H]3O[C@@H](n4cnc5c(N)ncnc54)[C@H](O)[C@@H]3O)[C@H](O)[C@@H]2O)c1
Put plainly: Substrate activity at recombinant Schistosoma mansoni sirtuin 2 (21 to 322 residues) expressed in Escherichia coli BL21(DE3) cells assessed as Km up to 30 mins in presence of ZMML at saturated concentration by homogeneous fluorescence based analysis. Format: ADME.

As a reminder, the IC50 is the midpoint of a concentration-inhibition curve. One may read the inhibition as the drop in the measured response relative to a control, in per cent. Take `NC(=O)c1cccnc1` [NIACINAMIDE]: the IC50 in data set [1] was 23.1 µM; in data set [2], 420 µM. In addition, the inhibition at 20 µM in data set [3] stood at 8.7%. Moreover, the inhibition at 500 µM in data set [4] stood at 100%. Besides, the inhibition entry in [5], in [6], in data set [7] and in data set [8] was “Active” throughout. Besides, the inhibition result in [9], in data set [10], in [11] and in data set [12] was “inactive” in each case.
`NC(=O)c1ccc[n+]([C@H]2O[C@@H](COP(=O)([O-])OP(=O)(O)OC[C@H]3O[C@@H](n4cnc5c(N)ncnc54)[C@H](O)[C@@H]3O)[C@H](O)[C@@H]2O)c1`: in data set [13], the Kcat/Km was determined as 9.4 ×10¹ /s/M. Further, the Ratio in [14] turned out to be 3.

B1: NAD-dependent protein deacetylase (Schistosoma mansoni) (protein)
chain: T1 sequence (T1VXA1 whole entry)
One may read the Km as the concentration of substrate that gives half-maximal velocity. Broadly, the kcat is the number of substrate molecules converted per active site and unit of time at saturation. As usually defined, the kcat/Km is the turnover number divided by the Michaelis constant. Consider B1, for which the Km was 15.1 µM in data set [15]; 33.9 µM in [16]; 59 µM in data set [17]; 37.5 µM in [18]; 75.8 µM in data set [19]; 13.3 µM in [20]. Further, the Km in data set [21] worked out at 9.3 µM. The kcat stood at 0.00563 s⁻¹ in [15], 0.00172 s⁻¹ in data set [16], 0.000119 s⁻¹ in [19] and 0.00538 s⁻¹ in [20]. Besides, the kcat/Km in [15] came out at 370 M⁻¹ s⁻¹; in data set [16], 51 M⁻¹ s⁻¹; in [20], 410 M⁻¹ s⁻¹.
